Consider six molecules from US10294217B2, “Fluoroindole derivatives as muscarinic M1 receptor positive allosteric modulators” (Suven Life Sciences Limited, priority 2015, dated 2019).

Molecules are shown by their SMILES.

Series [1] can be described thus: Protein binding assay (HT dialysis), rat matrices. In kind it is in vitro ADME. The note with it: Mean ± SEM. The procedure: (§1) Unbound fractions of new chemical entities in plasma, brain homogenate and liver microsomes were determined using high-throughput dialysis (HT dialysis). Briefly, dialysis membranes were soaked in deionized water for 20 minutes and then in deionized water with 30% ethanol for 15 minutes and finally in phosphate buffer until use. Membranes were rinsed in phosphate buffer before assembling. The membranes were layered between teflon bars of dialysis assembly. Stock solutions of test compounds were prepared at 10 mM in DMSO, diluted to 1 mM in acetonitrile and further diluted to 100 μM in mixture of water and acetonitrile (1:1 v/v). Human plasma (pool of 3) was prepared from human blood (3 donors) by centrifuging at 4000 rpm for 10 min at 4° C. Rat and dog blood were obtained on the day of the study and centrifuged to obtain plasma. Rat brains were isolated, cleaned and homogenized with 2 volumes of buffer (3 fold dilution). Liver microsomes were prepared at 0.5 mg/mL in phosphate buffer (100 mM, pH 7.4). The dialysate chambers were loaded with 150 μL of 100 mM phosphate buffer (pH 7.4) in triplicates. The matrix chambers were loaded with 150 μL of the plasma or brain homogenate or microsomal suspension spiked with test compounds at a final concentration of 1 μM. 50 μL of the sample was removed from both the chambers at 0 h. The plate was sealed and incubated at 37° C. for 6 h at 100 rpm. After 6 h, 50 μL of the sample was removed from both the chambers. Equal volumes of buffer or human plasma/microsomal suspension were added to the plasma/microsomal and buffer samples respectively to create identical sample matrices for analysis. The samples were precipitated with 150 μL of acetonitrile containing fluoxetine as an internal standard. All the samples were centrifuged at 10000 rpm for 10 minutes at 4° C.

Series [2] is described as follows: Protein binding assay (HT dialysis), dog matrices. In kind it is in vitro ADME. The following applies: Mean ± SEM. The procedure:
as §1

Series [3] is described as follows: Rodent brain penetration study. Format: in vivo, Male Wistar rats. The following applies: male, Wistar, rat, oral; 3 mg/kg, p.o.; brain-plasma ratio; read-out: Single dose Rat Brain Penetration (Cb/Cp). How it is done:
WO2015044072A1 patent application discloses indole derivatives as M1 PAM compounds. […] This makes these compounds less ideal for the treatment of CNS disorders.
Rodent Brain Penetration Study
Male Wistar rats (260±40 grams) were used as experimental animals. Three animals were housed in each cage. Animals were given water and food ad libitum throughout the experiment and maintained on a 12 hours light/dark cycle.
Brain penetration was determined in discrete manner in rats. One day prior to dosing day, male Wistar rats were acclimatized and randomly grouped according to their weight. At each time point (0.5, 1 and 2 hours) n=3 animals were used.
The test compounds were suitably preformulated and administered orally at (free base equivalent) 3 mg/kg. Blood samples were removed via cardiac puncture by using isoflurane anesthesia. The animals were sacrificed to collect brain tissue. Plasma was separated and brain samples were homogenized and stored frozen at ˜20° C. until analysis. The concentrations of the test compounds in plasma and brain were determined using LC-MS/MS method.
The test compounds were quantified in plasma and brain homogenate by qualified LC-MS/MS method using suitable extraction technique. The test compounds were quantified in the calibration range of 1-500 ng/mL in plasma and brain homogenate. Study samples were analyzed using calibration samples in the batch and quality control samples spread across the batch.

The test system of the next series is Male Wistar rats. As to the kind of experiment: Object recognition task model. In kind it is in vivo. The note with it: p.o.; for Exploration time Familiar object / Exploration time Novel object: mean ± S.E.M, choice trial 24 hours after T1. The procedure: Object Recognition Task Model
The cognition enhancing properties of compounds of this invention were estimated by using this model.
Male Wistar rats (8-10 weeks old) were used as experimental animals. Four animals were housed in each cage. Animals were kept on 20% food deprivation from a day prior to experimentation. Water was provided ad libitum throughout the experiment. Animals were maintained on a 12 hours light/dark cycle in temperature and humidity controlled room. The experiment was carried out in an open field made up of acrylic. Rats were habituated to individual arenas (open field) for 1 hour in the absence of any objects on day 1.
One group of 12 rats received vehicle and another set of animals received compound of the formula (I), before the familiar (T1) and choice (T2) trials. During the familiarization phase, (T1), the rats were placed individually in the arena for 3 minutes, in which two identical objects (a1 and a2) were positioned 10 cm from the wall. 24 hours after T1, trial for long-term memory test was performed. The same rats were placed in the same arena as they were placed in T1 trial. During the choice phase (T2) rats were allowed to explore the arena for 3 minutes in presence of a copy of familiar object (a3) and one novel object (b). During the T1 and T2 trial, explorations of each object (defined as sniffing, licking, chewing or having moving vibrissae whilst directing the nose towards the object at a distance of less than 1 cm) were recorded using stopwatch. • T1 is the total time spent exploring the familiar objects (a1+a2). • T2 is the total time spent exploring the familiar object and novel object (a3+b). • Discriminative index=Time spent with novel object/(time spent with novel and familiar object).
The object recognition test was performed as described by Behavioural Brain Research, 1988, 31, 47-59 and the results are provided in table 5.

A short description of series [4]: Protein binding assay (HT dialysis), human matrices. Format: in vitro ADME. The note with it: Mean ± SEM. The procedure:
as §1

Setting [5] is: pH 7.4, Rat brain homogenate, 37° C., n = 3, read-out: Fu Brain.
Setting [6] is: pH 7.4, Rat liver microsomes 0.5 mg/mL, n = 3, read-out: Fu Microsomes.
Where [7] appears, read: pH 7.4, Rat plasma, 37° C., n = 3, read-out: Fu Plasma.
Setting [8] is: pH 7.4, Dog liver microsomes 0.5 mg/mL, n = 3, read-out: Fu Microsomes.
Where [9] appears, read: pH 7.4, Dog plasma, 37° C., n = 3, read-out: Fu Plasma.
The mark [10] stands for this setting: pH 7.4, Human liver microsomes 0.5 mg/mL, n = 3, read-out: Fu Microsomes.
[11] abbreviates: pH 7.4, Human plasma, 37° C., n = 3, read-out: Fu Plasma.

In the case of `Cl.O=C(N[C@H]1CCNC[C@H]1F)c1cn(Cc2ccnc(F)c2)c2c(F)ccc(F)c12` (single isomer, unassigned; isomer-i) [Example 22, Cis-N-(3-Fluoropiperidin-4-yl)-1-(2-fluoropyridin-4-ylmethyl)-4,7-difluoro-1H-indole-3-carboxamide hydrochloride (Isomer-I)], the fraction unbound at 6 h, 1 μM in series [1] (setting [5]) is 0.067 ± 0.002; in series [1] (setting [6]), 0.902 ± 0.006; in series [1] (setting [7]), 0.315 ± 0.03; in series [2] (setting [8]), 0.866 ± 0.034; in series [2] (setting [9]), 0.31 ± 0.01; in series [4] (setting [10]), 0.788 ± 0.031. Further, the fraction unbound at 6 h, 1 μM in series [4] (setting [11]) worked out at 0.309 ± 0.008. For the same molecule, the Kp in series [3] turned out to be 0.46 ± 0.11. Moreover, in the series with Male Wistar rats (3 mg/kg), the Inference entry was “Active”. Besides, the “Exploration time Familiar object” value in the series on Male Wistar rats (3 mg/kg) was determined as 8.21 ± 0.70 s. For the same molecule, the “Exploration time Novel object” value in the series on Male Wistar rats (3 mg/kg) worked out at 15.72 ± 2.25 s.
As to `Cn1cc(Cn2cc(C(=O)N[C@H]3CCCC[C@@H]3O)c3c(F)cccc32)cn1` [Example 1, N-[(1S,2S)-2-Hydroxycyclohexyl]-1-(1-methyl-1H-pyrazol-4-ylmethyl)-4-fluoro-1H-indole-3-carboxamide], the fraction unbound at 6 h, 1 μM in series [1] (setting [5]) turned out to be 0.166 ± 0.01; in series [1] (setting [6]) it was 0.836 ± 0.04; in series [1] (setting [7]), 0.267 ± 0.03; in series [2] (setting [8]), 0.982 ± 0.01; in series [2] (setting [9]), 0.217 ± 0.21; in series [4] (setting [11]), 0.197 ± 0.01. Further, the Kp in series [3] is 0.3 ± 0.05. The Inference result in the series on Male Wistar rats (0.3 mg/kg) was “Active”. In addition, the “Exploration time Familiar object” value in the series on Male Wistar rats (0.3 mg/kg) stood at 11.31 ± 1.07 s. The “Exploration time Novel object” value in the series with Male Wistar rats (0.3 mg/kg) turned out to be 28.92 ± 3.54 s.
In the case of `O=C(N[C@H]1CCCC[C@@H]1O)c1cn(Cc2ccnc(Cl)c2)c2cccc(F)c12` [Example 2, N-[(1S,2S)-2-Hydroxycyclohexyl]-1-(2-chloropyridin-4-ylmethyl)-4-fluoro-1H-indole-3-carboxamide], the fraction unbound at 6 h, 1 μM in series [1] (setting [5]) came to 0.015 ± 0.001; in series [1] (setting [6]), 0.679 ± 0.081; in series [1] (setting [7]) it was 0.068 ± 0.002; in series [2] (setting [8]), 0.576 ± 0.079; in series [2] (setting [9]) it was 0.087 ± 0.008; in series [4] (setting [10]), 0.459 ± 0.046. The fraction unbound at 6 h, 1 μM in series [4] (setting [11]) came out at 0.04 ± 0.002. In series [3], the Kp worked out at 0.95 ± 0.17. Also, the Inference entry with Male Wistar rats (1 mg/kg) is “Active”. Also, the “Exploration time Familiar object” value with Male Wistar rats (1 mg/kg) was 9.06 ± 1.75 s. For the same molecule, the “Exploration time Novel object” value in the series on Male Wistar rats (1 mg/kg) was 15.09 ± 2.19 s.
Turning to `Cn1cc(Cn2cc(C(=O)N[C@H]3CCCC[C@@H]3O)c3c(F)ccc(F)c32)cn1` [Example 5, N-[(1S,2S)-2-Hydroxycyclohexyl]-1-(1-methyl-1H-pyrazol-4-ylmethyl)-4,7-difluoro-1H-indole-3-carboxamide], the fraction unbound at 6 h, 1 μM in series [1] (setting [5]) worked out at 0.128 ± 0.01; in series [1] (setting [6]) it was 0.779 ± 0.01; in series [1] (setting [7]) it was 0.21 ± 0.01; in series [2] (setting [8]) it was 0.746 ± 0.004; in series [2] (setting [9]), 0.163 ± 0.02; in series [4] (setting [10]) it was 0.899 ± 0.03. The fraction unbound at 6 h, 1 μM in series [4] (setting [11]) was 0.077 ± 0.01. Moreover, in series [3], the Kp is 0.5 ± 0.04. Also, the Inference entry in the series with Male Wistar rats (0.3 mg/kg) is “Active”. Moreover, the “Exploration time Familiar object” value in the series with Male Wistar rats (0.3 mg/kg) turned out to be 11.00 ± 0.81 s. Also, the “Exploration time Novel object” value with Male Wistar rats (0.3 mg/kg) came out at 19.64 ± 1.74 s.
On to `O=C(N[C@H]1CCCC[C@@H]1O)c1cn(Cc2ccnc(F)c2)c2cccc(F)c12` [Example 7, N-[(1S,2S)-2-Hydroxycyclohexyl]-1-(2-fluoropyridin-4-ylmethyl)-4-fluoro-1H-indole-3-carboxamide], for which the fraction unbound at 6 h, 1 μM in series [1] (setting [5]) came to 0.06 ± 0.004; in series [1] (setting [6]), 0.8 ± 0.04; in series [1] (setting [7]), 0.2 ± 0.02; in series [2] (setting [8]), 0.6 ± 0.03; in series [2] (setting [9]), 0.2 ± 0.01; in series [4] (setting [10]) it was 0.7 ± 0.03. The fraction unbound at 6 h, 1 μM in series [4] (setting [11]) was determined as 0.1 ± 0.004. Further, the Kp in series [3] stood at 0.61 ± 0.01. In addition, the Inference result in the series on Male Wistar rats (1 mg/kg) is reported as “Active”. Further, the “Exploration time Familiar object” value in the series on Male Wistar rats (1 mg/kg) was determined as 9.16 ± 0.83 s. Besides, the “Exploration time Novel object” value in the series on Male Wistar rats (1 mg/kg) came to 19.56 ± 1.96 s.
Consider `O=C(N[C@H]1CCCC[C@@H]1O)c1cn(Cc2ccnc(F)c2)c2c(F)ccc(F)c12` [Example 8, N-[(1S,2S)-2-Hydroxycyclohexyl]-1-(2-fluoropyridin-4-ylmethyl)-4,7-difluoro-1H-indole-3-carboxamide], for which the fraction unbound at 6 h, 1 μM in series [1] (setting [5]) amounted to 0.0348 ± 0.0001; in series [1] (setting [6]) it was 0.606 ± 0.008; in series [1] (setting [7]), 0.089 ± 0.01; in series [2] (setting [8]), 0.679 ± 0.066; in series [2] (setting [9]), 0.064 ± 0.01; in series [4] (setting [10]), 0.626 ± 0.037. The fraction unbound at 6 h, 1 μM in series [4] (setting [11]) came to 0.079 ± 0.006. For the same molecule, the Kp in series [3] came to 1.1 ± 0.1. Also, the Inference entry in the series on Male Wistar rats (0.3 mg/kg) was “Active”. Besides, the “Exploration time Familiar object” value in the series on Male Wistar rats (0.3 mg/kg) came to 7.59 ± 1.02 s. Further, in the series on Male Wistar rats (0.3 mg/kg), the “Exploration time Novel object” value was determined as 14.36 ± 1.56 s.
